Laboratory results reported in the kinase profiling compilation of Christmann-Franck et al. (2016).

What was measured:
Assay in all cases: KINOMEscan competition binding
Conditions in all cases: compound 10.0 µM
[1] = tested on: ABL1 (human), P00519 [Y253F]
ACVR1 (human) = ACVR1 (human) (UniProt Q04771)
ACVRL1 (human) = ACVRL1 (human) (UniProt P37023)
AKT1 (human) = AKT1 (human) (UniProt P31749)
AURKC (human) = AURKC (human) (UniProt Q9UQB9)
CAMK4 (human) = CAMK4 (human) (UniProt Q16566)
CDK11B (human) = CDK11B (human) (UniProt P21127)
CDK4 CCND1 (human) = CDK4 CCND1 (human) (UniProt P11802+P24385)
Sequence of CDK4 CCND1 (human) (P11802 whole entry, looked up): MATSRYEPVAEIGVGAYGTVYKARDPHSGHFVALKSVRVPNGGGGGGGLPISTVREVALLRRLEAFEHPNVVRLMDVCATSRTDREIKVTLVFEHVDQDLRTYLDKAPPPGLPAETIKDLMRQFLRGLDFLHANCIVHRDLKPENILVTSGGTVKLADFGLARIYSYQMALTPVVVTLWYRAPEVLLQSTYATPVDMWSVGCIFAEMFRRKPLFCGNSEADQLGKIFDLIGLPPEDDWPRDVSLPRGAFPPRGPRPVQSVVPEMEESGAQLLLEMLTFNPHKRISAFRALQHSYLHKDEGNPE
Sequence of CDK4 CCND1 (human) (P24385 whole entry, looked up): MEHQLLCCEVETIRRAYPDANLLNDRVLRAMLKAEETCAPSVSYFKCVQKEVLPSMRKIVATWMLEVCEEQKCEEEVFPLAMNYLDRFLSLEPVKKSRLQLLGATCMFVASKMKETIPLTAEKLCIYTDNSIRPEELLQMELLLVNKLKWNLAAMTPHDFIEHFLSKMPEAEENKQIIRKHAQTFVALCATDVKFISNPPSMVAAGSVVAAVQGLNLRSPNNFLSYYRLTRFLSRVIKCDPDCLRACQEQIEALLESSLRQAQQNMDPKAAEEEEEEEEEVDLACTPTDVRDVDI

CPK1 (P.falciparum) = tested on: CPK1 (P.falciparum)
CSNK1G3 (human) = CSNK1G3 (human) (UniProt Q9Y6M4)
DSTYK (human) = DSTYK (human) (UniProt Q6XUX3)
EPHA4 (human) = EPHA4 (human) (UniProt P54764)
Sequence of EPHA4 (human) (P54764 whole entry, looked up): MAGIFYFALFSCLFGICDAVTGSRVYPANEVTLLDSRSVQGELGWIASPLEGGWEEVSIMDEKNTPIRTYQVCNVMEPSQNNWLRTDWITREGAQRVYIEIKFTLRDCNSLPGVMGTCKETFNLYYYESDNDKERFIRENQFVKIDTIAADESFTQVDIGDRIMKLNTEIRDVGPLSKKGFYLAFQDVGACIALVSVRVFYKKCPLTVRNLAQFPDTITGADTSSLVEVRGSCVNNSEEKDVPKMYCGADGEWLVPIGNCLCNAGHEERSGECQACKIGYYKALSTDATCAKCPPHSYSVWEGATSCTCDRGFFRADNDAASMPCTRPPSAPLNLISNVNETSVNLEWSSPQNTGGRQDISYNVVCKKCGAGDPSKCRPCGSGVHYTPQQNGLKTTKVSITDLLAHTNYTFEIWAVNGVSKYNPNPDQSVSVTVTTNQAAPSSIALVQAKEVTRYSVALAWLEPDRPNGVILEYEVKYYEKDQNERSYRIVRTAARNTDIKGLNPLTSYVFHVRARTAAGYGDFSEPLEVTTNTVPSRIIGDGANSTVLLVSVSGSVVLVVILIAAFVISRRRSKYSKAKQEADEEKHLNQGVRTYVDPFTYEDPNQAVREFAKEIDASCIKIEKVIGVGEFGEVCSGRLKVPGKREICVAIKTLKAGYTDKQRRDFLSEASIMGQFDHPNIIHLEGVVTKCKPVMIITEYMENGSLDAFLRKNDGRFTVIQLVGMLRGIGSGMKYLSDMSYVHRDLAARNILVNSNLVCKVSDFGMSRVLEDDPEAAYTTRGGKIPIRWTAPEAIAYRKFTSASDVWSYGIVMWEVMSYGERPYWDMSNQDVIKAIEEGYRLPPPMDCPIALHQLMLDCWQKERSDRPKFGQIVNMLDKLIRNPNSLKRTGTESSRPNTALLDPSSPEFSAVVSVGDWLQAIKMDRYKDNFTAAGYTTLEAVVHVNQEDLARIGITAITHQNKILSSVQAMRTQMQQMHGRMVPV

EPHA7 (human) = EPHA7 (human) (UniProt Q15375)
ERN1 (human) = ERN1 (human) (UniProt O75460)
FES (human) = FES (human) (UniProt P07332)
FLT1 (human) = FLT1 (human) (UniProt P17948)
IKBKE (human) = IKBKE (human) (UniProt Q14164)
Sequence of IKBKE (human) (Q14164 whole entry, looked up): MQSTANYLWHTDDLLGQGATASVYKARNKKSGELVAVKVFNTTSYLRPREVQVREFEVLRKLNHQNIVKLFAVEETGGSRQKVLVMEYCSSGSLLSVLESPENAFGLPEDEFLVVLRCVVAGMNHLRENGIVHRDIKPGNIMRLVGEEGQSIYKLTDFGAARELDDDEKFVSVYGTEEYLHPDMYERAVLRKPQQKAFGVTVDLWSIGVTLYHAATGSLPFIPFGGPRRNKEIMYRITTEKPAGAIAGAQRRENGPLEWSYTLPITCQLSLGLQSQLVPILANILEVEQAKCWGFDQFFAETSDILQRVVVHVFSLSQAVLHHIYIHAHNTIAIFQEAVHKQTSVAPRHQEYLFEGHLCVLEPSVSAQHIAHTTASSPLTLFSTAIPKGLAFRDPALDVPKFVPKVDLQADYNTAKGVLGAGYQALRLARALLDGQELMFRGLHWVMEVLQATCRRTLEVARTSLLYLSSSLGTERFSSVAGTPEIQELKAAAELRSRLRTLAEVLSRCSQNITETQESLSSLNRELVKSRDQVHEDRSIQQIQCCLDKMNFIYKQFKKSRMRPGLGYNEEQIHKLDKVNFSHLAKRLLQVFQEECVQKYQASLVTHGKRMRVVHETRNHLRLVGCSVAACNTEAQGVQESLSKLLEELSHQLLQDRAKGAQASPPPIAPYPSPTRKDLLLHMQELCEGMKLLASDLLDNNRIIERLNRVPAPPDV

IRAK1 (human) = IRAK1 (human) (UniProt P51617)
LCK (human) = LCK (human) (UniProt P06239)
MAP2K4 (human) = MAP2K4 (human) (UniProt P45985)
MAP3K12 (human) = MAP3K12 (human) (UniProt Q12852)
MAP3K13 (human) = MAP3K13 (human) (UniProt O43283)
MAP4K5 (human) = MAP4K5 (human) (UniProt Q9Y4K4)
MAPK8 (human) = MAPK8 (human) (UniProt P45983)
MATK (human) = MATK (human) (UniProt P42679)
MKNK2 (human) = MKNK2 (human) (UniProt Q9HBH9)
NEK1 (human) = NEK1 (human) (UniProt Q96PY6)
Sequence of NEK1 (human) (Q96PY6 whole entry, looked up): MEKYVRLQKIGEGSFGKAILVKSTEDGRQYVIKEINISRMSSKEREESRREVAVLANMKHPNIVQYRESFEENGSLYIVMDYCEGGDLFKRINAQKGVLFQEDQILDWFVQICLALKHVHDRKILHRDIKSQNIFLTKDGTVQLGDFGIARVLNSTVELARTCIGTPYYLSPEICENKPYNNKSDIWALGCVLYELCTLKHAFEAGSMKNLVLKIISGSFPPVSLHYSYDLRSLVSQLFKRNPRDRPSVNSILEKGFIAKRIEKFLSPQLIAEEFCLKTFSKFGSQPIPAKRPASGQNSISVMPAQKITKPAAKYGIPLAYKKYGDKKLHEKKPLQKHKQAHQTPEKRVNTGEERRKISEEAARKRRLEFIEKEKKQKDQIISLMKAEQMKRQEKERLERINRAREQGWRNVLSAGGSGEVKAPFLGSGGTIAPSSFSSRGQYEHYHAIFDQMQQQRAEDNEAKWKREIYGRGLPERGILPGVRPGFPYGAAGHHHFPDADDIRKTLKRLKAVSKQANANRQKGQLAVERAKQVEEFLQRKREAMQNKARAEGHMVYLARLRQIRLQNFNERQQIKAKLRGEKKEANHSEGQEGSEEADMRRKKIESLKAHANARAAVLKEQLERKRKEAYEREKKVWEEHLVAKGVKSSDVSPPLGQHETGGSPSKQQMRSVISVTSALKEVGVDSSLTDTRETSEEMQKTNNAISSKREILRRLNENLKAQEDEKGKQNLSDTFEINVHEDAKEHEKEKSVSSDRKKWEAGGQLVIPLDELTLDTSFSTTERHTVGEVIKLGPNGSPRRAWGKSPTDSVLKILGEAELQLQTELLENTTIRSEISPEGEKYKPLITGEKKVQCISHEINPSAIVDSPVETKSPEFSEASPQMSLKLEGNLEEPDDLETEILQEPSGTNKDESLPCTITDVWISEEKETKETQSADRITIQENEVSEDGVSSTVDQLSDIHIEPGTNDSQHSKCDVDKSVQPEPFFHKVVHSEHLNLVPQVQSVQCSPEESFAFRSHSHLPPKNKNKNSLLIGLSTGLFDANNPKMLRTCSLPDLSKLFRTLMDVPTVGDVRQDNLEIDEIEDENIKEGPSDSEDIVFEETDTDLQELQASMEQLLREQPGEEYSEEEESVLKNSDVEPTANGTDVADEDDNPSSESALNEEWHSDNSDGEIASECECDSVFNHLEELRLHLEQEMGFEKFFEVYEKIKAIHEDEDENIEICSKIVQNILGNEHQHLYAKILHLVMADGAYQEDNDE

NEK11 (human) = NEK11 (human) (UniProt Q8NG66)
OXSR1 (human) = OXSR1 (human) (UniProt O95747)
PAK7 (human) = PAK7 (human) (UniProt Q9P286)
PDGFRB (human) = PDGFRB (human) (UniProt P09619)
PKN2 (human) = PKN2 (human) (UniProt Q16513)
RIPK1 (human) = RIPK1 (human) (UniProt Q13546)
SRMS (human) = SRMS (human) (UniProt Q9H3Y6)
SRPK2 (human) = SRPK2 (human) (UniProt P78362)
STK32C (human) = STK32C (human) (UniProt Q86UX6)
TNK2 (human) = TNK2 (human) (UniProt Q07912)
Sequence of TNK2 (human) (Q07912 whole entry, looked up): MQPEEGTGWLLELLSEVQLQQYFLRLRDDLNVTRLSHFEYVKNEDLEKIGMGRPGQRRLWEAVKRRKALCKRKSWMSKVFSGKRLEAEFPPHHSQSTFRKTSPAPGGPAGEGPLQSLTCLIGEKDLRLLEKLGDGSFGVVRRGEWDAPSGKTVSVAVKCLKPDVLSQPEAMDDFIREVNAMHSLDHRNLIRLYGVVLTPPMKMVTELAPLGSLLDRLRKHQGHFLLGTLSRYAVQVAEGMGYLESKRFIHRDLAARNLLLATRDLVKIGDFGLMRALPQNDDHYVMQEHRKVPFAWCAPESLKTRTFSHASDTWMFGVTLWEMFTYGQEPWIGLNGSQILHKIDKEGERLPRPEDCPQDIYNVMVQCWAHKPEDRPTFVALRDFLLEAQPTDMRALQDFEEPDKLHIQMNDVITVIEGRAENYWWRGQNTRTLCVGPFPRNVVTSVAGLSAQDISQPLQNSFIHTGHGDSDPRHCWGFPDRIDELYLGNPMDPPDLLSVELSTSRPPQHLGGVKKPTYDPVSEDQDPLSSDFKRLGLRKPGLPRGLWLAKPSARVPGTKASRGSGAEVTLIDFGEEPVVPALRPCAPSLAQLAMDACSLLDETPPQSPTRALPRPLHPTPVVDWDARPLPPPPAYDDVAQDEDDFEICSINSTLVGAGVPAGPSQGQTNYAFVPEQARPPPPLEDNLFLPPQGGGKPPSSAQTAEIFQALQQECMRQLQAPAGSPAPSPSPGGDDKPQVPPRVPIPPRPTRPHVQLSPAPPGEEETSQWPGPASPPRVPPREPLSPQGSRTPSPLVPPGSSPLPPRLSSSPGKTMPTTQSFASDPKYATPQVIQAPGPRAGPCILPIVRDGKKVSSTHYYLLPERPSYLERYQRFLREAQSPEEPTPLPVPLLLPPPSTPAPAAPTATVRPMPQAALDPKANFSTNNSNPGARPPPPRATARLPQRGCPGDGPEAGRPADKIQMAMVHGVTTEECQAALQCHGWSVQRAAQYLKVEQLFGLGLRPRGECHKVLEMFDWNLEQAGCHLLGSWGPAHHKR

CAMKK1 (human) = CAMKK1 (human) (UniProt Q8N5S9)
EPHA3 (human) = EPHA3 (human) (UniProt P29320)
RPS6KA6 KD2 (human) = RPS6KA6 KD2 (human) (UniProt Q9UK32)

Sequence of AKT1 (human) (P31749 whole entry, looked up): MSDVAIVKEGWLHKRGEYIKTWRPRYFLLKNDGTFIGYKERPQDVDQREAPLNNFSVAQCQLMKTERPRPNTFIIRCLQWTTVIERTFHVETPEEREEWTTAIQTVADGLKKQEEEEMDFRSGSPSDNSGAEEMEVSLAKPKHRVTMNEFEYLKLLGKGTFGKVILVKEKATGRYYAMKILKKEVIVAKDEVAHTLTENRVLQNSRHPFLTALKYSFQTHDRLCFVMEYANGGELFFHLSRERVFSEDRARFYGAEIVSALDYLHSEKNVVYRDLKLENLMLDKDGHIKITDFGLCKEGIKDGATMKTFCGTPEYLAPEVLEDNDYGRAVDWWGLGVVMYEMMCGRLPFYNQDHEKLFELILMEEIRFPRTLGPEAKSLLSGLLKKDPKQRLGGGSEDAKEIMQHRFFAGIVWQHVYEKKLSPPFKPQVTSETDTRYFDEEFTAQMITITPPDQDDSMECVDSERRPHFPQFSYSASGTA

SMILES | kinase still bound, per cent of control (ACVR1 (human)) | kinase still bound, per cent of control (ACVRL1 (human)) | kinase still bound, per cent of control (AKT1 (human)) | kinase still bound, per cent of control (AURKC (human)) | kinase still bound, per cent of control (CAMK4 (human)) | kinase still bound, per cent of control (CDK11B (human)) | kinase still bound, per cent of control (CDK4 CCND1 (human)) | kinase still bound, per cent of control (CSNK1G3 (human)) | kinase still bound, per cent of control (DSTYK (human)) | kinase still bound, per cent of control (EPHA4 (human)) | kinase still bound, per cent of control (EPHA7 (human)) | kinase still bound, per cent of control (ERN1 (human)) | kinase still bound, per cent of control (FLT1 (human)) | kinase still bound, per cent of control (IKBKE (human)) | kinase still bound, per cent of control (IRAK1 (human)) | kinase still bound, per cent of control (MAP2K4 (human)) | kinase still bound, per cent of control (MAP3K12 (human)) | kinase still bound, per cent of control (MAP3K13 (human)) | kinase still bound, per cent of control (MAPK8 (human)) | kinase still bound, per cent of control (MATK (human)) | further results
COc1cc2ncn(-c3cc(OCc4ccccc4C(F)(F)F)c(C(N)=O)s3)c2cc1OC | 60% | 100% | 100% | 27% | 100% | 100% | 91% | 100% | 88% | 83% | 79% | 75% | 58% | 60% | 54% | 100% | 68% | 100% | 100% | 85% | kinase still bound, per cent of control [1]: 88%; kinase still bound, per cent of control (CPK1 (P.falciparum)): 75%; kinase still bound, per cent of control (FES (human)): 87%; kinase still bound, per cent of control (LCK (human)): 34%; kinase still bound, per cent of control (MAP4K5 (human)): 3%; kinase still bound, per cent of control (MKNK2 (human)): 76%; kinase still bound, per cent of control (NEK1 (human)): 65%; kinase still bound, per cent of control (NEK11 (human)): 100%; kinase still bound, per cent of control (OXSR1 (human)): 100%; kinase still bound, per cent of control (PAK7 (human)): 98%; kinase still bound, per cent of control (PDGFRB (human)): 5.3%; kinase still bound, per cent of control (PKN2 (human)): 39%; kinase still bound, per cent of control (RIPK1 (human)): 74%; kinase still bound, per cent of control (SRMS (human)): 58%; kinase still bound, per cent of control (SRPK2 (human)): 34%; kinase still bound, per cent of control (STK32C (human)): 100%; kinase still bound, per cent of control (TNK2 (human)): 54%
C[C@@H](Oc1cc(-c2cnn(C3CCNCC3)c2)cnc1N)c1c(Cl)ccc(F)c1Cl | 0.6% | 45% | 100% | 3.4% | 100% | 0.1% | 51% | 100% | 1.6% | 6% | 0.3% | 42% | 25% | 60% | 0% | 93% | 9% | 10% | 100% | 64% | kinase still bound, per cent of control (CAMKK1 (human)): 60%; kinase still bound, per cent of control (EPHA3 (human)): 11%; kinase still bound, per cent of control (LCK (human)): 0.15%; kinase still bound, per cent of control (MKNK2 (human)): 11%; kinase still bound, per cent of control (NEK1 (human)): 56%; kinase still bound, per cent of control (NEK11 (human)): 98%; kinase still bound, per cent of control (PAK7 (human)): 49%; kinase still bound, per cent of control (PDGFRB (human)): 44%; kinase still bound, per cent of control (PKN2 (human)): 26%; kinase still bound, per cent of control (RIPK1 (human)): 5%; kinase still bound, per cent of control (RPS6KA6 KD2 (human)): 35%; kinase still bound, per cent of control (SRMS (human)): 54%; kinase still bound, per cent of control (SRPK2 (human)): 46%; kinase still bound, per cent of control (STK32C (human)): 100%; kinase still bound, per cent of control (TNK2 (human)): 2.8%
CNC(=O)c1cc(Oc2ccc(NC(=O)Nc3ccc(Cl)c(C(F)(F)F)c3)cc2)ccn1 | 100% | 77% | 100% | 100% | 100% | 98% | 65% | 91% | 100% | 42% | 25% | 74% | 6.6% | 100% | 70% | 100% | 57% | 100% | 100% | 100% | kinase still bound, per cent of control (CAMKK1 (human)): 89%; kinase still bound, per cent of control (CPK1 (P.falciparum)): 0.95%; kinase still bound, per cent of control (FES (human)): 74%; kinase still bound, per cent of control (MAP4K5 (human)): 7.2%; kinase still bound, per cent of control (MKNK2 (human)): 0.1%; kinase still bound, per cent of control (NEK1 (human)): 88%; kinase still bound, per cent of control (NEK11 (human)): 100%; kinase still bound, per cent of control (OXSR1 (human)): 100%; kinase still bound, per cent of control (PAK7 (human)): 100%; kinase still bound, per cent of control (PDGFRB (human)): 0%; kinase still bound, per cent of control (PKN2 (human)): 100%; kinase still bound, per cent of control (RIPK1 (human)): 81%; kinase still bound, per cent of control (RPS6KA6 KD2 (human)): 38%; kinase still bound, per cent of control (SRPK2 (human)): 96%; kinase still bound, per cent of control (STK32C (human)): 100%; kinase still bound, per cent of control (TNK2 (human)): 96%
